Consider 80 compounds from patent US6500817B1, “Thiazolyl urea derivatives and their utilization as antiviral agents” (Bayer Aktiengesellschaft, priority 1999, dated 2002).

SMILES strings stand for the structures.

Consider `CCCOc1ccc(NC(=O)N(C)c2nc(C)c(S(=O)(=O)NC)s2)cc1`, for which the melting point (in general, the temperature of the solid-liquid transition) was found to be 161 °C.
`CC(=O)N1CCc2c(cccc2Oc2ccc(NC(=O)N(C)c3nc(Cl)c(S(=O)(=O)N(C)C)s3)cc2)C1` registered a melting point of 163 °C.
The compound `CNS(=O)(=O)c1sc(N(Cc2ccccn2)C(=O)Nc2ccc(N3CCOCC3)cc2)nc1C` came in with a melting point of 206 °C.
Next, `CCOc1ccc(NC(=O)N(Cc2nc3ccccc3[nH]2)c2nc(C)c(S(=O)(=O)NC)s2)cc1`: 197 °C; `CCOc1ccc(NC(=O)N(CCn2ccnn2)c2nc(C)c(S(=O)(=O)NC)s2)cc1`: 188 °C.
Next, `CCOc1ccc(NC(=O)N(Cc2cccnc2)c2nc(C)c(S(=O)(=O)NC)s2)cc1`: 212 °C; `CN(C(=O)Nc1ccc(-n2ccnn2)cc1)c1nc(Cl)c(S(=O)(=O)N(C)C)s1`: 225 °C; `CCCN(C(=O)Nc1ccc(COC)cc1)c1nc(C)c(S(=O)(=O)NCC(F)(F)F)s1`: 143 °C.
Under `CN(C(=O)Nc1ccc(N2CCOCC2)c(Cl)c1)c1nc(Cl)c(S(=O)(=O)N(C)C)s1` stands 203 °C.
`CCCN(C(=O)Nc1ccc(-c2ccccc2)cc1)c1nc(C)c(S(=O)(=O)NCC(F)(F)F)s1` came in with a melting point of 146 °C.
Next, `CCOc1ccc(NC(=O)N(C)c2nc(C)c(S(=O)(=O)N(C)C)s2)cc1`: 168 °C; `CCOc1ccc(NC(=O)N(CCC2CCCN2C)c2nc(C)c(S(=O)(=O)NC)s2)cc1` (centres unmarked): 141 °C; `CCCN(C(=O)Nc1ccc(-c2ccccc2)cc1)c1nc(C)c(S(=O)(=O)NCC)s1`: 160 °C.
Under `CCOc1ccc(NC(=O)N(CCCCNC(=O)OC(C)(C)C)c2nc(C)c(S(=O)(=O)NC)s2)cc1` stands 148 °C.
Next, `CCOc1ccc(NC(=O)N(CCN(C)C)c2nc(CC)c(S(=O)(=O)NC)s2)cc1`: 208 °C.
Compound `Cc1nc(N(C)C(=O)Nc2ccc(-c3ncon3)cc2)sc1S(=O)(=O)N(C)C` returned a melting point of 184 to 186 °C.
The compound `CSc1ccc(NC(=O)N(C)c2nc(Cl)c(S(=O)(=O)N(C)C)s2)cc1` showed a melting point of 194 °C.
As for `Cc1nc(N(C)C(=O)Nc2ccc(N3CCCC3=O)cc2)sc1S(=O)(=O)N(C)C`, the melting point is 195 °C (dec.).
Compound `CNS(=O)(=O)c1sc(N(C)C(=O)Nc2ccc(C3=NOCCO3)cc2)nc1C` displayed a melting point of 192 to 194 °C.
Under `Cc1nc(N(C)C(=O)Nc2ccc(C3=NOCCO3)cc2)sc1S(=O)(=O)NC1CC1` stands greater than 225 °C; under `Cc1nc(N(C)C(=O)Nc2ccc(N3CC=CC3)cc2)sc1S(=O)(=O)N(C)C`, 185 °C; under `CNS(=O)(=O)c1sc(N(C)C(=O)Nc2ccc(N3CCCCC3)cc2)nc1C`, 157 to 160 °C (dec.).
`COC(=O)c1ccc(NC(=O)N(C)C2=NC(Cl)C(S(=O)(=O)N(C)C)S2)cc1` (centres unmarked) showed a melting point of 220 °C.
Under `Cc1nc(N(C)C(=O)Nc2ccc(N3CCCCC3)cc2)sc1S(=O)(=O)NC1CC1` stands 198 °C.
In the case of `CNS(=O)(=O)c1sc(N(C)C(=O)Nc2ccc(-c3cccc(OC)c3)cc2)nc1C`, the melting point was 178 °C.
Under `Cc1nc(NC(=O)Nc2ccc(-c3ccccc3)cc2)sc1S(=O)(=O)N(C)C` stands greater than 250 °C; under `CNS(=O)(=O)c1sc(NC(=O)Nc2ccc(-c3ccccc3)cc2)nc1C`, 199 °C.
Under `CCc1nc(N(C)C(=O)Nc2ccc(-c3ccccc3)cc2)sc1S(=O)(=O)NC` stands 204 °C; under `CN(C(=O)Nc1ccc(OC(CF)CF)cc1)c1nc(Cl)c(S(=O)(=O)N(C)C)s1`, 164 °C.
Next, `CCCOc1ccc(NC(=O)N(CCOC)c2nc(CC)c(S(N)(=O)=O)s2)cc1`: 163 °C; `CNS(=O)(=O)c1sc(N(CCCN2CCN(C)CC2)C(=O)Nc2ccc(-c3ccccc3)cc2)nc1C`: 188 °C; `CCCNS(=O)(=O)c1sc(N(CCC)C(=O)Nc2ccc(-c3ccccc3)cc2)nc1C`: 137 °C.
`CNS(=O)(=O)c1sc(N(CCCN2CCCC2=O)C(=O)Nc2ccc(-c3ccccc3)cc2)nc1C` came in with a melting point of 148 °C.
Next, `CNS(=O)(=O)c1sc(N(CC2CCCO2)C(=O)Nc2ccc(-c3ccccc3)cc2)nc1C` (centres unmarked): 178 °C.
`CCCCOc1ccc(NC(=O)N(C)c2nc(Cl)c(S(=O)(=O)N(C)C)s2)cc1` had a melting point of 140 °C.
Next, `CCCOc1ccc(NC(=O)N(C)C2=CC(C)=C(S(N)(=O)=O)C2)cc1`: 200 °C.
Next, `COCCNS(=O)(=O)c1sc(N(C)C(=O)Nc2ccc(-c3ccccc3)cc2)nc1C`: 157 °C.
Next, `CNS(=O)(=O)c1sc(N(CCOC)C(=O)Nc2ccc(-c3ccccc3)cc2)nc1C`: 170 °C; `COCCN(C(=O)Nc1ccc(-c2ccccc2)cc1)c1nc(C)c(S(=O)(=O)NC2CC2)s1`: 160 °C; `CCCN(C(=O)Nc1ccc(-c2ccccc2)cc1)c1nc(C)c(S(=O)(=O)NC)s1`: 156 °C.
With `Cc1nc(N(C)C(=O)Nc2ccc(N3CCCC3)cc2)sc1S(N)(=O)=O`, the melting point is 209 °C.
Under `Cc1nc(N(CCN(C)C)C(=O)Nc2ccc(N3CCOCC3)cc2)sc1S(N)(=O)=O` stands 123 °C.
As to `Cc1nc(N(CCN(C)C)C(=O)Nc2ccc(-c3ccccc3)cc2)sc1S(N)(=O)=O`, the melting point is 138 °C.
Under `CNS(=O)(=O)c1sc(N(CCN(C)C)C(=O)Nc2ccc(N3CCCC3)cc2)nc1C` stands 188 °C; under `CCCN(C(=O)Nc1ccc(OCC)cc1)c1nc(Cl)c(S(=O)(=O)N(C)C)s1`, 132 °C; under `CCOc1ccc(NC(=O)N(C)c2nc(Cl)c(S(=O)(=O)NC)s2)cc1`, 183 °C.
Next, `CN(C)C(=O)Nc1ccc(NC(=O)N(C)c2nc(Cl)c(S(=O)(=O)N(C)C)s2)cc1`: 240 °C; `CN(C(=O)Nc1ccc(OC(F)(F)C(F)F)cc1)c1nc(Cl)c(S(=O)(=O)N(C)C)s1`: 168 °C; `CCOc1ccc(NC(=O)N(C)c2nc(Cl)c(S(=O)(=O)NCc3ccccc3)s2)cc1`: 170 °C.
Next, `CCOc1ccc(NC(=O)N(C)c2nc(Cl)c(S(=O)(=O)NCN3CCCCC3)s2)cc1`: 183 °C.
`CN(C(=O)Nc1ccc(N2CCOCC2)cc1)c1nc(Cl)c(S(=O)(=O)NCc2ccccc2)s1` registered a melting point of 201 °C.
Next, `CN(C(=O)Nc1ccc(Oc2ccccc2)cc1)c1nc(Cl)c(S(=O)(=O)N(C)C)s1`: 127 °C; `COC(=O)c1ccc(N(C)C(=O)N(C)c2nc(Cl)c(S(=O)(=O)N(C)C)s2)cc1`: 168 °C.
Under `Cc1nc(N(C)C(=O)Nc2ccc(N3CCOCC3)cc2)sc1S(=O)(=O)N(C)C1CC1` stands 198 °C; under `Cc1nc(N(C)C(=O)Nc2ccc(N3CCOCC3)cc2)sc1S(=O)(=O)NCc1ccccc1`, 216 °C.
Next, `CCOc1ccc(NC(=O)N(C)c2ncc(S(=O)(=O)NCc3ccccc3)s2)cc1`: 171 °C.
Regarding `CCOc1ccc(NC(=O)N(C)c2nc(C)c(S(=O)(=O)NC)s2)cc1`, the melting point is 179 °C.
Next, `Cc1nc(N(C)C(=O)Nc2ccc(N3CCOCC3)cc2)sc1S(=O)(=O)NC1CC1`: 235 °C; `CCCN(C(=O)Nc1ccc(N2CCOCC2)cc1)c1nc(C)c(S(=O)(=O)N(C)C)s1`: 161 °C.
Compound `CCOc1ccc(NC(=O)N(CCN(C)C)c2nc(C)c(S(=O)(=O)N(C)C)s2)cc1` displayed a melting point of 163 °C.
Under `Cc1nc(N(C)C(=O)Nc2ccc(N3CCOCC3)cc2)sc1S(=O)(=O)N(C)Cc1ccccn1` stands 148 °C.
As for `CCOc1ccc(NC(=O)N(CC(C)C)c2nc(C)c(S(=O)(=O)N(C)C)s2)cc1`, the melting point came to 173 °C.
Turning to `CCOc1ccc(NC(=O)N(CCOC)c2nc(C)c(S(=O)(=O)N(C)C)s2)cc1`, the melting point came out at 162 °C.
Under `CCOc1ccc(NC(=O)N(CC2COc3ccccc3O2)c2nc(C)c(S(=O)(=O)NC3CC3)s2)cc1` (centres unmarked) stands 170 °C; under `CCOc1ccc(NC(=O)N(CCc2ccccc2)c2nc(C)c(S(=O)(=O)NCc3ccccc3)s2)cc1`, 156 °C.
Under `CCOc1ccc(NC(=O)N(C)c2nc(C)c(S(=O)(=O)N(C)CC)s2)cc1` stands 163 °C.
In the case of `CCOc1ccc(NC(=O)N(CCO)c2nc(C)c(S(=O)(=O)N(C)C)s2)cc1`, the melting point came to 160 °C.
Next, `CCOc1ccc(NC(=O)N(CCCO)c2nc(C)c(S(=O)(=O)N(C)C)s2)cc1`: 147 °C; `CCOc1ccc(NC(=O)N(C)c2nc(C)c(S(=O)(=O)NCc3cccc(OC)c3)s2)cc1`: 134 °C.
In turn, `CCOc1ccc(NC(=O)N(C)c2nc(C)c(S(=O)(=O)NCc3ccccn3)s2)cc1` registered a melting point of 154 °C.
Next, `CCOc1ccc(NC(=O)N(CCNC(=O)OC(C)(C)C)c2nc(C)c(S(=O)(=O)N(C)C)s2)cc1`: 164 °C; `CCOc1ccc(NC(=O)N(CCCNC(=O)OC(C)(C)C)c2nc(C)c(S(=O)(=O)N(C)C)s2)cc1`: 130 °C; `CCOc1ccc(NC(=O)OCCN(C(=O)Nc2ccc(OCC)cc2)c2nc(C)c(S(=O)(=O)N(C)C)s2)cc1`: 177 °C.
Under `CCCN(C(=O)Nc1ccc(OCC)cc1)c1nc(C)c(S(=O)(=O)NCc2ccccc2)s1` stands 145 °C; under `CCCN(C(=O)Nc1ccc(OCC)cc1)c1nc(C)c(S(=O)(=O)NC2CC2)s1`, 141 °C; under `CCOc1ccc(NC(=O)N(C)c2nc(C)c(S(=O)(=O)NCC3CC3)s2)cc1`, 164 °C.
Under `CCOc1ccc(NC(=O)N(CCOC)c2nc(C)c(S(=O)(=O)NC3CC3)s2)cc1` stands 164 °C.
As for `CCOc1ccc(NC(=O)Nc2nc(C)c(S(=O)(=O)N3CCCC3)s2)cc1`, the melting point was 198 °C.
Turning to `CCOc1ccc(NC(=O)N(C)c2nc(C)c(S(=O)(=O)NC(C)C)s2)cc1`, the melting point turned out to be 192 °C.
Under `CNS(=O)(=O)c1sc(N(CCCO)C(=O)Nc2ccc(N3CCOCC3)cc2)nc1C` stands 181 °C.
